Source: patent US7446122B2, “Substituted indole derivatives” (Cephalon, Inc., priority 2003, dated 2008)

Assays:
[1] = tested on: Cyclin D1 protein in LNCaP cells; experiment: Western blot of Cyclin D1 protein in LNCaP cell lysates; format: cell-based; details: LNCaP cell lysates from treated cells
[2] = tested on: Daudi human Burkitt Lymphoma derived tumors; experiment: Daudi lymphoma murine xenograft model, efficacy; format: in vivo, male SCID mice; details: for mean tumor volume at termination of the study: p.o. in sesame oil, compound 47 250, compound 36 (printed 26) 250, compound 1 125, R-etodolac 400 mg/kg/d, control 1583 mm^3; for 4× Growth: time for the tumors to grow to 4× the initial volume at dosing, control 8.9 d; for 8× Growth: time for the tumors to grow to 8× the initial volume at dosing, control 14.5 d
Protocol: Male SCID mice, 6-8 weeks of age, obtained from Simonsen Laboratories, Inc. (Gilroy, Calif.) were housed in groups of five.
The Daudi human Burkitt Lymphoma cells were obtained from American Type Culture Collection and were inoculated subcutaneously (1.0×10^7 cells/mouse) on the flanks of SCID mice. After the tumors reached approximately 100 mm^3 treatment was initiated.
Body weights and tumor volume of all mice were measured and recorded twice weekly. Tumors were measured in three dimensions and volume calculated using the formula: […]. Time for the tumors (days) to grow to 4× and 8× the initial volume at dosing were assessed. Study compounds were administered at 125 or 250 mg/kg/day (M-F) via oral gavage until the end of the study.
The efficacy of chlorambucil (2 and 3 mg/kg/d), (R-etodoalc) (400 mg/kg/d) and compound 47 (250 mg/kg/d), compound 26 (250 mg/kg/d), and compound 1 (125 mg/kg/d) against Daudi derived tumors in male SCID mice were studied. R-etodolac and compounds 1, 26 and 47 were prepared in sesame oil. Both chlorambucil (ip, 0.1 ml) and compounds of the invention (per os [p.o.], 0.31 ml) were dosed daily (Monday to Friday) for two weeks. SDX-101 (0.31 ml) was dosed p.o. daily until the end of the study. […] However, all treated mice recovered after Day 2 and maintained their weights. There was no body weight loss observed in other treatment groups. At termination of the study, the control group mean tumor volume was 1583 mm^3. The mean tumor volume of chlorambucil treated groups were 864 and 766 mm^3 with 2 and 3 mg/kg/d chlorambucil treatment, respectively. The mean tumor volume of R-etodolac and compounds 1, […] and 47 were 802, 996, 1011, and 1157 mm^3 with compounds 47, 36, 1 and R-etodolac treatment, respectively. […] At termination of the study, tumor samples along with liver, kidney, and spleen samples from each group were collected and fixed in 10% buffered formalin for histopathology.

[3] = target: T1, Cyclooxygenase-2 (human recombinant, expressed in Sf9 cell) (Homo sapiens, UniProt P35354); experiment: Cox-2 assay: human recombinant cyclooxygenase-2, PGE2 by EIA; format: biochemical; details: human recombinant enzyme; for IC50: 0.3 μM arachidonic acid, PGE2; for inhibition at 10 µM: compounds are screened at 10 μM
T1 construct: purchased Cayman 60122; host or cells: Sf9 cell
T1 sequence (P35354 18-604): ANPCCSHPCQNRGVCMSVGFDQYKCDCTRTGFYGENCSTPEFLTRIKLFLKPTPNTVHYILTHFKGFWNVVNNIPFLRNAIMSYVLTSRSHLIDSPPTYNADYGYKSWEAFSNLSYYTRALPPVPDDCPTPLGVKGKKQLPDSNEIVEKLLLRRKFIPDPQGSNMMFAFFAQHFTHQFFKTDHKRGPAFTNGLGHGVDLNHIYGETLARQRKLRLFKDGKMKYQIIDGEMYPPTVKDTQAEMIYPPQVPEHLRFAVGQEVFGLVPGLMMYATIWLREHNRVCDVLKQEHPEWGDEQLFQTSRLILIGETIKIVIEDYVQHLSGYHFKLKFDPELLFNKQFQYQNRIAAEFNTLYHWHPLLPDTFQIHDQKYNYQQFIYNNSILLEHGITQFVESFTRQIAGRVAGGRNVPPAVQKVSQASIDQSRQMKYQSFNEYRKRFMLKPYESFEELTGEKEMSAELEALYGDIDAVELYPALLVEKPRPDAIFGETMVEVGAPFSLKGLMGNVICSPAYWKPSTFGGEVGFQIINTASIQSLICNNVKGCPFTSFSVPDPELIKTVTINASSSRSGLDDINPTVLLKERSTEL
Protocol: Test compound and/or vehicle is pre-incubated with 0.11 U cyclooxygenase-2, 1 mM reduced glutathione (GSH), 500 μM phenol and 1 μM hematin for 15 minutes at 37° C. The reaction is initiated by addition of 0.3 μM arachidonic acid as substrate in Tris-HCl pH 7.7 and terminated after a 5 minute incubation at 37° C. by addition of 1N HCl. Following centrifugation, substrate conversion to PGE2 is measured by an Amersham EIA kit. Compounds are screened at 10 μM. […] J. Physiol.

[4] = tested on: Normal prostate cells (PREC); experiment: Cell cytotoxicity, MTT assay, PREC; format: cell-based; details: Homo sapiens, 72 h, three days incubation
Protocol: (§1) Normal prostate cells (PREC, Cambrex East Rutherford N.J.), prostate cancer cell line (LNCaP, ATCC), PBL (peripheral blood leukocytes-buffy coat San Diego Blood Bank), and primary CLL cells were incubated for one to two days in RPMI-1640 and 10% FBS (fetal bovine serum). They were plated in 96-well plates at 100,000 cells/well. Titrated concentrations of the compound to be tested were added to the culture medium. The cells were incubated three days at 37° C., 5% CO2. Viability of the cells was assayed by standard MTT assay. Each drug concentration was done in duplicate. MTT assay: 10 μl of 12 mM 3,[4,5-dimethylthiazol-2-yl]-2,5-diphenyltetrazolium bromide (MTT) (SIGMA) was added to each well. The cells were incubated at 37° C., 5% CO2 for 4 hours. 100 μl of 20% SDS, 0.015M HCl was added to each well and the cells were incubated overnight. The plates were read at absorbance 595 nm.

primary CLL cells = experiment: Cell cytotoxicity, MTT assay, primary CLL cells; format: cell-based; details: 72 h, three days incubation
Protocol: as §1

COX-1 = target: T2, COX-1 (Homo sapiens, UniProt P23219); experiment: Cox-1 assay: PGE2 formation in human platelets; format: cell-based; details: for IC50: arachidonic acid 100 μM, PGE2; for inhibition at 10 µM: compounds are screened at 10 μM
T2 construct: endogenous in cells; host or cells: human platelets
Protocol: Test compound and/or vehicle is incubated with human platelets (10^8/ml) containing the phospholipase inhibitor MLnFP (100 μM) for 15 minutes at 37° C. Arachidonic acid (100 μM) is then added for a further 15 minute incubation period. The reaction is stopped by addition of 1 N HCl and neutralized with 1N NaOH. PGE2 levels in the supernatant are determined using the Amersham EIA kit. […]

[5] = tested on: prostate cancer cell line (LNCaP); experiment: Cell cytotoxicity, MTT assay, LNCaP; format: cell-based; details: Homo sapiens, 72 h, three days incubation
Protocol: as §1

[6] = tested on: PBL (peripheral blood leukocytes); experiment: Cell cytotoxicity, MTT assay, PBL; format: cell-based; details: Leukocyte, 72 h, three days incubation
Protocol: as §1

[7] = tested on: cyclin D1 transcripts in LNCaP cells; experiment: Cyclin D1 transcript expression by quantitative PCR in LNCaP cells; format: cell-based; details: 24 hours, compound 42 (50 μM), compound 36 (100 μM), compound 1 (20 μM), normalized to 18s, FIG. 2
Protocol: Cyclin D1 Transcript Expression Levels as measured by quantitative PCR assay. LNCaP cells were cultured at 37° C., 5% CO2 for 24 hours untreated or in the presence of R-etodolac (200 μM), compound 42 (50 μM), compound 36 (100 μM), or compound 1 (20 μM) (see Table II for structures). Cells were harvested by trypsinization, washed with PBS, and stored at −80° C. Total cellular RNA was prepared from cell pellets using the RNEasy® Mini kit (Qiagen, Inc., Valencia, Calif.). RNA was quantified by spectrophotometer. Approximately 2 μg of RNA was used to prepare cDNA using the ThermoScript™ RT-PCR System (Invitrogen, Carlsbad, Calif.).
The levels of cyclin D1 transcripts in the cDNA samples were measured using a quantitative PCR (qPCR) assay specific for cyclin D1. The cyclin D1 transcript was amplified using the following primer pair:
The cyclin D1 primers are described in a manuscript from Takayasu et al. (2001 Clin. Cancer Res. 7:901-908). All assays were performed in duplicate. All qPCR assays were performed and analyzed using a Bio-Rad iCycler (Bio-Rad, Hercules, Calif.). The levels of cyclin D1 transcripts were normalized for total input cDNA by performing a separate assay to detect the levels of a housekeeping gene (18s) using the following primer pair:
The samples were normalized for 18s transcript levels using the method of Livak et al. (2001 Methods 25:402-408). The level of cyclin D1 transcripts in the control sample was set to 1. FIG. 2 represents the averaged normalized cyclin D1 transcripts±standard deviation for three independent experiments (two independent experiments for compound 1).

T2 sequence (P23219 24-599): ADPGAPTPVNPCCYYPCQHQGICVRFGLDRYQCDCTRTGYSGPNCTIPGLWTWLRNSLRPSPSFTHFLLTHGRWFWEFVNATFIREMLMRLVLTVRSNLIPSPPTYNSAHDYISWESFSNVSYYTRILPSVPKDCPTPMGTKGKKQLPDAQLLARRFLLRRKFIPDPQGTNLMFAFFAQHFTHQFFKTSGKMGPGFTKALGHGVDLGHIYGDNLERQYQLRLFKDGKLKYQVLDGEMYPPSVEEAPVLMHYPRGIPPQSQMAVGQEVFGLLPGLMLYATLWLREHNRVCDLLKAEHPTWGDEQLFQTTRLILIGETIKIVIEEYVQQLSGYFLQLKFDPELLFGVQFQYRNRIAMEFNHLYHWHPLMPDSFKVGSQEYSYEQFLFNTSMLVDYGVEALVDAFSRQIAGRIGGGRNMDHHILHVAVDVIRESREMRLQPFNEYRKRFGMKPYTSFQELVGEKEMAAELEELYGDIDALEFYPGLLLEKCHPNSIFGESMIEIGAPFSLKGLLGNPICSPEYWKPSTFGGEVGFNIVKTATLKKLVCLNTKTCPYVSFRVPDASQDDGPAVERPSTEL

Row | IC50 [3] | inhibition at 10 µM [3] | IC50 (COX-1) | inhibition at 10 µM (COX-1) | melting point | Structure (SMILES) | Cyclin D1 protein expression (Western blot) [1] | mean tumor volume at termination of the study [2] | 4× Growth [2] | 8× Growth [2] | IC50 [4] | IC50 (primary CLL cells) | IC50 [5] | IC50 [6] | cyclin D1 mRNA expression [7]
1 |  |  |  |  |  | CCc1cccc2c3c([nH]c12)[C@@](CC)(CC(=O)O)OCC3 [R-etodolac, reference compound] | reduced Cyclin D1 protein expression | 1157 mm^3 | 11 days | 17 days |  |  |  |  | 
2 | > 300 µM | 3% | > 300 µM | 24% |  | CCC1(CCO)OCCc2c1[nH]c1c(Cl)cccc21 (stereo not drawn) [Compound 27, 2-(8-CHLORO-1-ETHYL-1,3,4,9-TETRAHYDRO-PYRANO[3,4-b]INDOL-1-YL)-ETHANOL] |  |  |  |  | 140 µM | 52 µM | 52 µM | 150 µM | 
3 | < 10 µM | 100% | < 10 µM | 96% |  | CCc1cc(-c2ccccc2)cc2c3c([nH]c12)C(CC)(CCO)OCC3 (stereo not drawn) [Compound 1, 2-(1,8-DIETHYL-6-PHENYL-1,3,4,9-TETRAHYDRO-PYRANO[3,4-b]INDOL-1-YL)-ETHANOL] | reduced Cyclin D1 protein expression | 1011 mm^3 | 15.8 days | 21.1 days | 53 µM | 72 µM | 14 µM | 76 µM | inhibit cyclin D1 mRNA expression
4 | > 100 µM | 78% | 68.6 µM | 45% |  | CCc1cc(Br)cc2c3c([nH]c12)C(CC)(CCO)OCC3 (stereo not drawn) [Compound 47, 2-(6-BROMO-1,8-DIETHYL-1,3,4,9-TETRAHYDRO-PYRANO[3,4-b]INDOL-1-YL)-ETHANOL] |  | 802 mm^3 | 16 days | 21.5 days | 14 µM | 21 µM | 3 µM | 60 µM | 
5 |  |  |  |  | 68 °C | CCC1(CCO)OCCc2c1[nH]c1c(C)cccc21 (stereo not drawn) [Compound 25, 2-(1-ETHYL-8-METHYL-1,3,4,9-TETRAHYDRO-PYRANO[3,4-b]INDOL-1-YL)-ETHANOL] |  |  |  |  |  |  | 60 µM |  | 
6 |  |  |  |  | 114 to 115 °C | CCC1(CCO)OCCc2c1[nH]c1ccc(C)cc21 (stereo not drawn) [Compound 24, 2-(1-ETHYL-6-METHYL-1,3,4,9-TETRAHYDRO-PYRANO[3,4-b]INDOL-1-YL)-ETHANOL] |  |  |  |  |  |  | 80 µM |  | 
7 | > 300 µM | -10% | > 300 µM | -69% |  | CCc1cccc2c3c([nH]c12)[C@@](CC)(CCO)OCC3 [Compound 35, R-2-(1,8-DIETHYL-1,3,4,9-TETRAHYDRO-PYRANO[3,4-b]INDOL-1-YL)-ETHANOL] |  |  |  |  | 220 µM | 100 µM | 68 µM | 140 µM | 
8 |  |  |  |  |  | CCC1(CCO)OCCc2c1[nH]c1c(Cl)cc(Cl)cc21 (stereo not drawn) [Compound 46, 2-(6,8-DICHLORO-1-ETHYL-1,3,4,9-TETRAHYDRO-PYRANO[3,4-b]INDOL-1-YL)-ETHANOL] |  |  |  |  |  |  | 18 µM | 20 µM | 
9 |  |  |  |  |  | CCC1(CCO)OCCc2c1[nH]c1ccc(Br)cc21 (stereo not drawn) [Compound 42, 2-(6-BROMO-1-ETHYL-1,3,4,9-TETRAHYDRO-PYRANO[3,4-b]INDOL-1-YL)-ETHANOL] | reduced Cyclin D1 protein expression |  |  |  |  |  | 12 µM |  | inhibit cyclin D1 mRNA expression
10 | > 300 µM | 18% | > 300 µM | -4% |  | CCC1(CCO)OCCc2c1[nH]c1c(C(C)C)cccc21 (stereo not drawn) [Compound 36, 2-(1-ETHYL-8-ISOPROPYL-1,3,4,9-TETRAHYDRO-PYRANO[3,4-b]INDOL-1-YL)-ETHANOL] | reduced Cyclin D1 protein expression | 996 mm^3 | 13.5 days | 20.8 days | 160 µM | 50 µM | 30 µM | 160 µM | inhibit cyclin D1 mRNA expression

Row | Structure (SMILES) | IC50 [3] | inhibition at 10 µM [3] | IC50 (COX-1) | inhibition at 10 µM (COX-1) | melting point | Cyclin D1 protein expression (Western blot) [1] | mean tumor volume at termination of the study [2] | 4× Growth [2] | 8× Growth [2] | IC50 [4] | IC50 (primary CLL cells) | IC50 [5] | IC50 [6] | cyclin D1 mRNA expression [7]
11 | CCc1cccc2c3c([nH]c12)C(CC)(CC(=O)O)OCC3 (stereo not drawn) [Etodolac, reference compound] | > 300 µM | -14% |  |  |  |  |  |  |  | 416 µM | 200 µM | 122 µM | 350 µM | 
